According to patent publication US12185720B2, “Chitooligosaccharides and methods for use in enhancing plant growth” (NOVOZYMES BIOAG A/S, priority 2011, dated 2025):
“Also recorded” adds a separate entry of the source.

Legend:
Cotton plants [1] = assay: Cotton foliar experiment (greenhouse); type: in vivo; conditions: sprayed at V4 stage with 10^−8 M; grown up to 4 weeks; FIG. 9
Description: Cotton seeds were planted and grown to V4 stage (4 leaved stages) and then were sprayed with 10^−8 M of the LCO illustrated in FIG. 2b (also referred to in the examples as the “Pea LCO”) and the pea CO and then left to grow up to 4 weeks with occasional watering with Hoagland solution. Control plants were sprayed with water.

[2] = tested on: Hybrid corn seeds (92L90); assay: Corn seed treatment (greenhouse, two trials); type: in vivo; conditions: 3 fl oz/100 lbs of seed; for dry weight increase over LCO: 10^-8 M
Protocol: Two seed treatment experiments using only Pea LCO, Pea CO and the CO mixtures obtained from chitosan by enzymatic process (structurally distinct from the Pea CO, and also referred to in the examples as the “China CO”) were performed in greenhouse. Hybrid corn seeds (92L90, Peterson Farm, USA) were treated with treatment solution (10^-8 M) at the rate of 3 fl oz/100 lbs of seed. Seeds were planted in plastic pots containing 1:1 Sand:Perlite mixture. Seeds were allowed to grow for about 3-4 weeks and then they were harvested and their dry weight measured.

Red Clover root hairs = assay: Root hair deformation bioassay, Red Clover; conditions: compared to LCO
Protocol: Siratro (Macroptelium atropurpureum) seeds were germinated on moist filter paper in petriplates. When seedlings roots are about 1-inches long, they are severed from the seedlings and treated with 2 ml of 10^−8M treatment solutions in test tubes for 4 hours in the dark. After treatment time is over the solutions are dyed with Congo Red for 10 minutes. After that root segments are observed under a compound microscope to count the number of deformed root hairs in the most sensitive zone of the root segment. Root hair deformation bioassay was also performed using Red Clover in a similar fashion like Siratro above and only visual observation was made and recorded in text form.

canola seeds = assay: Canola seed germination in petriplates; type: in vivo; conditions: 10^−9 M
Protocol: In petriplates on moist filter paper moistened with 10^−9 M treatment solution, canola and wheat seeds were plated for germination. At 18 h after plating, Pea CO induced more canola and wheat seed germination as compared to Pea LCO. Over the period of 21 to 24 hours, seed germination rate for LCO and CO leveled up.

[3] = tested on: Alfalfa (Medicago sativa) seeds; assay: Alfalfa seed germination; type: in vivo; conditions: 10^−8 M, FIG. 17
Protocol: Alfalfa (Medicago sativa) seeds were germinated in petriplates on moist filter paper containing Pea LCO and Pea CO treatment solutions (10^−8 M) and petriplates were kept in the dark at room temperature (22° C.).

Corn seeds = assay: Corn seed germination and root length in petriplates; type: in vivo; conditions: 5 days after plating
Protocol: (§1) Corn and wheat seeds were plated in petriplates containing 5 ml of treatment solution on a filter paper. Corn seeds were placed on moist filter paper for germination. Similarly, wheat seeds (spring wheat) were placed in petriplates. […] Roots were harvested and their length measured by WinRhizo system.

[4] = tested on: wheat seeds (spring wheat); assay: Wheat seed germination and root length in petriplates (Example 8); type: in vivo; conditions: 5 days after plating; FIG. 20
Protocol: as §1

[5] = tested on: Common vetch (Vicia sativa) seeds; assay: Common vetch seed germination and root length; type: in vivo; conditions: FIG. 21
Protocol: Common vetch seeds were plated in petriplates containing 5 ml of treatment solutions on filter paper. Seed germination at 22° C. was counted after 24 h and seedling root length was measured at day 5 with WinRhizo system.

Green Mung seeds = assay: Seed germination in multiple crops: Green Mung; type: in vivo; conditions: 24 h, dark, 22° C., FIG. 23
Protocol: (§2) Similar to the seed germination experiment mentioned above, seeds of different crops were placed on moist filter paper in petriplates containing 5 ml liquid in each. Petriplates with seeds were then kept in the dark at 22° C.

[6] = tested on: Green Mung, Lab Lab, Red Lentil and Red Clover seeds; assay: Seed germination in multiple crops, overall; type: in vivo; conditions: four crops; dark, 22° C.; FIG. 23
Protocol: as §2

[7] = tested on: tomato Var. Royal Mounty seeds; assay: Tomato seedling root growth in petriplates (Example 11); type: in vivo; conditions: 22° C.; 5 days in dark; FIG. 24
Protocol: In petriplate seed germination process, tomato Var. Royal Mounty seeds ware placed on moist filter paper soaked with 5 ml treatment solution. At 22° C. and after 5 days in dark, tomato seedling roots were measured for growth by WinRhizo system.

[8] = tested on: Soybean seeds (Pioneer 9oM80); assay: Soybean seed treatment, radicle length; type: in vivo; conditions: after 48 hours, FIG. 25
Protocol: Soybean seeds (Pioneer 9oM80) were plated in petriplates on moist germination paper soaked with 5 ml of treatment solution containing either water or Soybean LCO, Pea CO and CO plus fatty acids. Seedling radicles were isolated after 48 hours and measured for their length.

Cotton seeds = assay: Cotton seed treatment (greenhouse); type: in vivo; conditions: seed treatment 10^−8 M, 3 fl oz/100 lbs of seed; 4 wks; FIG. 26
Protocol: Cotton seeds were treated with LCO and CO 10^−8 M treatment solutions at a dose rate of 3 fl oz/100 lbs of seed. Seeds were planted the very next day in plastic pots containing 1:1 sand:perlite mixture. Seeds were grown in greenhouse for 4 wks and then they were harvested.

Cotton plants [9] = assay: Cotton foliar application with micronutrients (greenhouse); type: in vivo; conditions: foliar spray Pea CO 10^−8 M, 4 wks after treatment, compared to control
Protocol: Cotton plants were grown from seeds in greenhouse plastic pots containing sand:perlite in a 1:1 mixture. When seedlings were at the V-stage, they were foliar-sprayed with Pea CO (10^−8 M) and CO plus micronutrients (Ca-pantothenate and boric acid), each in minute amounts. Plants were harvested 4 wks after treatment. Before harvest, leaf greenness was measured by SPAD chlorophyll meter.

soybean = assay: Soybean field trials, foliar application, grain yield; type: in vivo
corn = assay: Corn field trials, foliar application, grain yield; type: in vivo

CC(=O)NC1C(O)OC(CO)C(OC2OC(CO)C(OC3OC(CO)C(OC4OC(CO)C(OC5OC(CO)C(O)C(O)C5N)C(O)C4NC(C)=O)C(O)C3NC(C)=O)C(O)C2NC(C)=O)C1O (centres unmarked) [Pea CO]
more plant fresh weight increase over LCO (Cotton plants [1]): 1.14%
plant fresh weights over control (Cotton plants [1]): significantly increased
dry weight increase over LCO ([2]; first trial, FIG. 10): 11.84%
dry weight increase over LCO ([2]; second trial, FIG. 11): 12.63%
shoot, root and total biomass increase over LCO ([2]; treatment solution 10^-8 M, 3-4 weeks, both experiments): greater
root hair deformation pattern (visual observation) (Red Clover root hairs): much better and prominent; also recorded: best root hair deformer
seed germination at 18 h as compared to Pea LCO (canola seeds; FIG. 15): more
seed germination rate over 21 to 24 hours (canola seeds; LCO versus CO): leveled up
effect on alfalfa seed germination (conclusion) [3]: could positively impact
germination rate at 20 h among control, LCO and CO ([3]; dark, 22° C.): no difference
more germination over control and LCO at 27 h ([3]; dark, 22° C.): 6%
corn seed germination (Corn seeds; FIG. 18): increased germination
corn seedling root length over control (Corn seeds; WinRhizo, FIG. 19): significantly increased
increase in root length in wheat [4]: not statistically significant but consistently greater
wheat root length, CO compared to LCO [4]: outperformed LCO
early seed germination ([5]; 22° C., counted after 24 h): induced early seed germination
more germination over control and LCO ([5]; one day after plating): 25%
seed germination (Green Mung seeds): better germination
overall seed germination compared to Pea LCO [6]: better than Pea LCO
average seedling root length compared to LCO [7]: better than LCO but it was not significantly better
tomato seedling root length as compared to water control [7]: increased root length
seedling radicle length [8]: less effective
cotton plant dry weight (Cotton seeds): no significant differences; also recorded: relatively higher
total plant dry weight increase over control (Cotton seeds): 3.29%
leaf greenness (SPAD chlorophyll meter) (Cotton plants [9]; FIG. 30): significantly increased
average dry plant weight (Cotton plants [9]; FIG. 31): numerical increase
YIELD, Mean (N = 19) (soybean; soybean foliar at V4 to V5, 8×10^−8 molar, 12 μg/acre, with glyphosate): 58.2 bu/A
YIELD, Response Increase (soybean; soybean foliar, 12 μg/acre): 3 % of Control
YIELD, Response Increase (soybean; soybean foliar, 12 μg/acre, listed as CO (CO-V)): 3% of Control
YIELD, Response (soybean; soybean foliar, 12 μg/acre, over Control): 1.7 bu/A
CO mean yield less than foliar LCO (soybean; soybean foliar, CO minus LCO, less): 0.1 bu/A
yield enhancement as a foliar treatment (conclusion) (soybean; soybean foliar, CO versus LCO): substantially equal yield enhancements
Positive Yield Response (soybean; soybean foliar, percent of the 19 trials): 68.4%
YIELD, Response Increase (corn): 4.8 % of Control
CO mean yield better than foliar LCO (corn; CO minus LCO): 5.0 bu/A
higher yield increase than foliar LCO (corn; CO minus LCO): 2.6%
trials with a positive response, better than foliar LCO (corn; CO minus LCO): 18.8%
yield enhancement as a foliar treatment (conclusion) (corn; CO versus LCO): at least twice better
YIELD, Mean (N = 16) (corn; four ounces per acre with glyphosate): 201.8 bu/A
YIELD, Response (corn; over Control): 9.2 bu/A
Positive Yield Response (corn; percent of the 16 trials): 93.8%
